Values quoted from earlier work as cited in patent US20090285840A1, “METHODS FOR TREATING PATHOLOGICAL NEOVASCULARIZATION” (New York Society for the Ruptured and Crippled Maintaining …, priority 2008, published 2009).

Test system: human ADAM9 mRNA
Set-up: concentration or dose not given beside the values
Details: percentage inhibition data reported in US 2004/0092466, Example 15; target SEQ ID NO 94; cited from earlier work

Substance | % INHIB
34 (TTAATAGCAAGCTTTGAAAG; listed as DNA, chemistry not given here) [compound 34] | 68%
57 (ATTCCTTTGGAGTACCACAG; listed as DNA, chemistry not given here) [compound 57] | 81%
38 (TCCGTATCCTTTAGTCTCAC; listed as DNA, chemistry not given here) [compound 38] | 80%
37 (CAATGGATGAATTATGAACT; listed as DNA, chemistry not given here) [compound 37] | 62%
51 (AGAAAACCATTTCTTCCTTC; listed as DNA, chemistry not given here) [compound 51] | 75%
27 (CTGCTTTATTATAGCCATGA; listed as DNA, chemistry not given here) [compound 27] | 85%
30 (AAGATTTTATAATTGCTCCT; listed as DNA, chemistry not given here) [compound 30] | 71%
26 (GAATATTAAGAAGGCAGTTT; listed as DNA, chemistry not given here) [compound 26] | 27%
23 (CCTCTTCATCCTTTGCAGTT; listed as DNA, chemistry not given here) [compound 23] | 84%
40 (GTGAGGGAACTATATAAAGG; listed as DNA, chemistry not given here) [compound 40] | 66%
31 (CGATAAATGATGTGCTCAAA; listed as DNA, chemistry not given here) [compound 31] | 36%
48 (GGGAGGCTCTTCCTCTTCAT; listed as DNA, chemistry not given here) [compound 48] | 55%
54 (CTGATTAGTCAGTTTTCACA; listed as DNA, chemistry not given here) [compound 54] | 85%
24 (GTTTCCATTGGTCCAAATCT; listed as DNA, chemistry not given here) [compound 24] | 77%
58 (GGTATCTCTTGTACATTCTC; listed as DNA, chemistry not given here) [compound 58] | 18%
45 (GCTATTGTGAACGAATGTCA; listed as DNA, chemistry not given here) [compound 45] | 86%
53 (GCACCACATTTTGTGCCTTC; listed as DNA, chemistry not given here) [compound 53] | 74%
41 (AGGAATTAAGTTTCCCTGAG; listed as DNA, chemistry not given here) [compound 41] | 74%
55 (TCAATGCAGTATTCATTTCA; listed as DNA, chemistry not given here) [compound 55] | 49%

Substance | % INHIB
36 (TCTTTGCTCCACAGGAACAA; listed as DNA, chemistry not given here) [compound 36] | 77%
35 (GGGTCTGTGGCAAGACAGCT; listed as DNA, chemistry not given here) [compound 35] | 65%
43 (CTGGAACATCTGATCCTAGC; listed as DNA, chemistry not given here) [compound 43] | 77%
49 (ACTGAAGCTTTCCACACAAA; listed as DNA, chemistry not given here) [compound 49] | 52%
32 (CAGTGATTTGTCCAAACACA; listed as DNA, chemistry not given here) [compound 32] | 30%
42 (AAAATTTTACGATCCATACC; listed as DNA, chemistry not given here) [compound 42] | 72%
46 (CAAGATTCTAGAGTATGATG; listed as DNA, chemistry not given here) [compound 46] | 85%
50 (TCCCACAAATGCCATTCCTG; listed as DNA, chemistry not given here) [compound 50] | 78%
47 (ATCATGTCATACCTTTCCTT; listed as DNA, chemistry not given here) [compound 47] | 81%
33 (ATTCATTCCAAGATTATGAC; listed as DNA, chemistry not given here) [compound 33] | 75%
59 (GGGAACTGCTGAGGTTGCTT; listed as DNA, chemistry not given here) [compound 59] | 46%
29 (TACATTAATGATAACTAAGG; listed as DNA, chemistry not given here) [compound 29] | 68%
44 (CAAATGTCTCCACAGTGATT; listed as DNA, chemistry not given here) [compound 44] | 79%
56 (AAGAAGACCAGAAGTCCGTC; listed as DNA, chemistry not given here) [compound 56] | 74%
39 (TTCCTTCTTTCTCCAGCCTA; listed as DNA, chemistry not given here) [compound 39] | 81%
28 (ATGACTGAATAAGACTTATT; listed as DNA, chemistry not given here) [compound 28] | 68%
52 (ATTATTGGCAGCTGATTAGT; listed as DNA, chemistry not given here) [compound 52] | 79%
25 (CAAGATTATGACCCAATTCA; listed as DNA, chemistry not given here) [compound 25] | 69%
